Read-outs that look alike come from different tables or passages of the source.
Columns and labels:
OXPHOS [1] = test system: OXPHOS; parameters: method as in ImmunoMet, 2018; conditions: at the highest concentrations; ref ImmunoMet, 2018; cited from earlier work
[2] = beagle dogs, ref ImmunoMet, 2018, cited from earlier work
Hs746T GC xenograft = test system: Hs746T GC xenograft; parameters: method as in ImmunoMet, 2018; conditions: Hs746T GC xenograft in mice, each compound alone; IM156 10 or 30 mg/kg, Irinotecan 50 or 75 mg/kg; ref ImmunoMet, 2018; cited from earlier work
[3] = Urine pharmacokinetics of IM156 in patients; format: in vivo, human; conditions: for % Dose Recovered / CLr / Total Amount Excreted (Ae): urine
OXPHOS [4] = test: OXPHOS inhibition in whole blood ex vivo; format: cell-based; conditions: at ~ 6 μM IM156
Experimental: The maximum plasma exposure achieved in this study was ~ 6 μM in patients who received IM156 at daily doses of 800 mg. […] As such, measurements of target inhibition were not informative using PBMCs-based assays.

[5] = test system: purified complex I membrane from bovine heart; parameters: method as in ImmunoMet, 2018; conditions: ref ImmunoMet, 2018, read-out: mitochondrial OXPHOS inhibition IC50; cited from earlier work
SD rats = conditions: 2018, cited from earlier work
[6] = test system: miR-17~92 overexpression Eµ-MYC lymphoma; parameters: method as in ImmunoMet, 2018; conditions: nude mice, IM156 in drinking water 0.8 mg/mL, vs control line or regular drinking water; ref ImmunoMet, 2018; cited from earlier work
[7] = Day 27, cohort 1, 100 mg QOD, n<3
[8] = Day 27, cohort 7, 1200 mg QD, n<3
[9] = 150 mg/kg/dose QOD oral, between Days 8 and 10, ref ImmunoMet
[10] = oral QOD over 27 days (14 doses), ref ImmunoMet

NC(=Nc1ccc(OC(F)(F)F)cc1)N=C(N)N1CCCC1 [IM156]
time to show OXPHOS inhibition (OXPHOS [1]): ≤ 20 min
accumulation over 27 days ([2]; 20 mg/kg/dose QOD): no apparent accumulation
accumulation over 27 days ([2]; 40 and 80 mg/kg/dose QOD): accumulation
reduction of tumor volume (Hs746T GC xenograft): ~ 70%
IM156 excreted in the urine ([3]; Day 1, 200—1200 mg QOD, approximately): 8–10%
% Dose Recovered ([3]; Day 1, cohort 1, 100 mg QOD): 1.79 ± 0.620%
CLr ([3]; Day 1, cohort 1, 100 mg QOD): 6.16 ± 5.25 L/h
Total Amount Excreted (Ae) ([3]; Day 1, cohort 1, 100 mg QOD): 1790 ± 620 µg
% Dose Recovered ([3]; Day 1, cohort 2, 200 mg QOD): 10.0 ± 1.57%
CLr ([3]; Day 1, cohort 2, 200 mg QOD): 6.69 ± 0.709 L/h
Total Amount Excreted (Ae) ([3]; Day 1, cohort 2, 200 mg QOD): 20000 ± 3150 µg
% Dose Recovered ([3]; Day 1, cohort 3, 400 mg QOD): 7.90 ± 2.90%
CLr ([3]; Day 1, cohort 3, 400 mg QOD): 9.41 ± 6.80 L/h
Total Amount Excreted (Ae) ([3]; Day 1, cohort 3, 400 mg QOD): 31600 ± 11600 µg
% Dose Recovered ([3]; Day 1, cohort 4, 800 mg QOD): 7.86 ± 4.25%
CLr ([3]; Day 1, cohort 4, 800 mg QOD): 10.4 ± 6.93 L/h
Total Amount Excreted (Ae) ([3]; Day 1, cohort 4, 800 mg QOD): 62900 ± 34000 µg
% Dose Recovered ([3]; Day 1, cohort 5, 1200 mg QOD): 9.11 ± 12.9%
CLr ([3]; Day 1, cohort 5, 1200 mg QOD): 7.89 ± 9.01 L/h
Total Amount Excreted (Ae) ([3]; Day 1, cohort 5, 1200 mg QOD): 109000 ± 155000 µg
% Dose Recovered ([3]; Day 1, cohort 6, 800 mg QD): 7.96 ± 5.94%
CLr ([3]; Day 1, cohort 6, 800 mg QD): 7.92 ± 2.62 L/h
Total Amount Excreted (Ae) ([3]; Day 1, cohort 6, 800 mg QD): 63700 ± 47500 µg
% Dose Recovered ([3]; Day 1, cohort 7, 1200 mg QD): 8.79 ± 2.05%
CLr ([3]; Day 1, cohort 7, 1200 mg QD): 7.60 ± 4.02 L/h
Total Amount Excreted (Ae) ([3]; Day 1, cohort 7, 1200 mg QD): 105000 ± 24600 µg
% Dose Recovered [3, 7]: 4.32%
CLr [3, 7]: 4.46 L/h
Total Amount Excreted (Ae) [3, 7]: 4320 µg
% Dose Recovered ([3]; Day 27, cohort 2, 200 mg QOD): 13.9 ± 2.34%
CLr ([3]; Day 27, cohort 2, 200 mg QOD): 6.83 ± 1.58 L/h
Total Amount Excreted (Ae) ([3]; Day 27, cohort 2, 200 mg QOD): 27700 ± 4680 µg
% Dose Recovered ([3]; Day 27, cohort 3, 400 mg QOD): 16.2 ± 11.4%
CLr ([3]; Day 27, cohort 3, 400 mg QOD): 8.68 ± 1.52 L/h
Total Amount Excreted (Ae) ([3]; Day 27, cohort 3, 400 mg QOD): 64700 ± 45600 µg
% Dose Recovered ([3]; Day 27, cohort 4, 800 mg QOD): 16.2 ± 9.80%
CLr ([3]; Day 27, cohort 4, 800 mg QOD): 11.2 ± 6.94 L/h
Total Amount Excreted (Ae) ([3]; Day 27, cohort 4, 800 mg QOD): 129000 ± 78400 µg
% Dose Recovered ([3]; Day 27, cohort 5, 1200 mg QOD): 18.7 ± 10.6%
CLr ([3]; Day 27, cohort 5, 1200 mg QOD): 10.9 ± 7.79 L/h
Total Amount Excreted (Ae) ([3]; Day 27, cohort 5, 1200 mg QOD): 225000 ± 128000 µg
% Dose Recovered ([3]; Day 27, cohort 6, 800 mg QD): 34.8 ± 6.56%
CLr ([3]; Day 27, cohort 6, 800 mg QD): 8.72 ± 3.01 L/h
Total Amount Excreted (Ae) ([3]; Day 27, cohort 6, 800 mg QD): 279000 ± 52500 µg
% Dose Recovered [3, 8]: 21.0%
CLr [3, 8]: 7.16 L/h
Total Amount Excreted (Ae) [3, 8]: 252000 µg
% Dose Recovered ([3]; Fed 1, cohort 7, 1200 mg): 5.42 ± 3.51%
CLr ([3]; Fed 1, cohort 7, 1200 mg): 5.16 ± 3.51 L/h
Total Amount Excreted (Ae) ([3]; Fed 1, cohort 7, 1200 mg): 65100 ± 42100 µg
inhibition of OXPHOS in whole blood ex vivo (OXPHOS [4]): very little inhibition
IC50 [5]: 2000 nM
tolerability (SD rats; 50 mg/kg/dose QOD oral gavage, 27 days, ref ImmunoMet): well tolerated
preterminal euthanasia, females (SD rats; [9]): 3/15
preterminal euthanasia, males (SD rats; [9]): 2/15
no-observed-adverse-effect level (NOAEL) (SD rats; [10]): 50 mg/kg/dose
severely toxic dose in 10% of the rats (STD10) (SD rats; [10]): 100 mg/kg/dose
extension of overall animal survival [6]: approximately 50%
